Assay results from patent publication US20050220779A1, “Integrin linked kinase modulation of macrophage activation” (priority 2001, published 2005).

Experiments:
[1] = test system: BALB/c cells (primary peritoneal macrophages); assay: Cell survival by crystal violet staining, BALB/c cells; assay type: cell-based; conditions: 24 h, 50 μM
Experimental: Treatment of primary macrophages and RAW 264.7 cells. […] Following 3 h incubation, at 37 C, 5% CO2 (macrophages were allowed to attach) cells were stimulated with LPS (0.5 μg/ml) and IFN-γ (100 U/ml) in the absence or presence of various concentrations of ILK inhibitors (all treatments were replicated six times). Cells were incubated for an additional 24 h, and cell free culture supernatants from each well were collected for NO and cytokine determination. The remaining cells were stained with crystal violet to determine effect of the inhibitors on cell survival.
Effect of ILK Inhibitors on suppression of NO production and cell survival. Twenty-four hours following treatment with the ILK inhibitors, aliquots from the cell-free supernatants were assayed for NO and IL-6 release. Surviving cells were stained and fixed (crystal violet 0.05% in 20% ethanol), to determine if the decrease in NO production was related to a decrease in cell number due to toxicity of the compounds.

[2] = test system: C57BL/6 cells (primary peritoneal macrophages); assay: LPS-IFN-γ-induced macrophage NO production (Griess nitrite assay), C57BL/6 cells; assay type: cell-based, mouse; conditions: 50 μM, 24 h; for NO release (%): relative to DMSO treated cells; for inhibition at 50 µM: Mus musculus, Peritoneal macrophage
Experimental: Isolation of primary mouse macrophages. Peritoneal exudate macrophages were isolated by peritoneal lavage with ice-cold sterile physiological saline 24 h after intraperitoneal injection of BALB/c and CB57BL/6 mice with 0.3 ml of sterile Zymosan A (1 mg/0.5 ml 0.9% saline). Cells were washed, resuspended in RPMI 1640 supplemented with 2 mM L-glutamine, 100 units/ml penicillin, 100 μg/ml streptomycin, and 5% FBS.
Treatment of primary macrophages and RAW 264.7 cells. Primary macrophages (1.5×10^5 cells/well) and RAW 264.7 (4×10^4 cells/well) cells were grown in 96-well plates (nitrite assay), or 6-well plates (2×10^6 cells/well) for measurement of iNOS and COX-2 expression. Following 3 h incubation, at 37 C, 5% CO2 (macrophages were allowed to attach) cells were stimulated with LPS (0.5 μg/ml) and IFN-γ (100 U/ml) in the absence or presence of various concentrations of ILK inhibitors (all treatments were replicated six times). Cells were incubated for an additional 24 h, and cell free culture supernatants from each well were collected for NO and cytokine determination. The remaining cells were stained with crystal violet to determine effect of the inhibitors on cell survival.
NO production. Following stimulation, the production of NO was determined by assaying culture supernatants for NO2^−, a stable reaction product of NO with molecular oxygen. Briefly, 100 μl of culture supernatant was reacted with an equal volume of Griess reagent at room temperature for 10 min. The absorbance at 550 nm was determined. All measurements were performed six times. The concentration of NO2^−was calculated by comparison with a standard curve prepared using NaNO2.
Effects of ILK inhibitors on LPS-IFN-γ-induced NO release. […] […] To compare the effect of the compounds across three different cell types, the NO release for each cell type was expressed relative to DMSO treated cells. […] For example, macrophages from Balb/c and C57BL/6 mice responded similarly to the treatment with the compounds.

| SMILES | Survival (%) ([1]; BALB/c, mouse) | NO release (%) [2] | inhibition at 50 µM [2] | Survival (%) ([1]; BALB/c cells, DMSO-treated = 100%) |
| --- | --- | --- | --- | --- |
| N=C(N)N/N=C/c1ccc(Cl)cc1Cl [KP-16735] | 73% | −7.0% | 114% |  |
| Oc1ccc2c(c1)CC1NCCc3cc(O)c(O)c-2c31 (stereo not drawn) [KP-21849, 5,6,6a,7-Tetrahydro-4H-dibenzo[de,g]quinoline-1,2,9-triol] |  | −8.0% | 118% | 41% |
